Assay results taken from patent US8021851B2, “Thr51 phosphorylated HP 1β protein for the assessment of DNA damage” (Cambridge Enterprise Limited, priority 2009, dated 2011).

Assays:
γH2AX = γH2AX foci formation / staining in MEFs after IR; assay type: cell-based, mouse
Description: Cell staining and immunofluorescence analyses were carried out as described previously^2. Briefly, transfected and untransfected cells were grown on coverslips and subjected to different treatments as indicated in the text prior to fixation. Cells were fixed using 4% formaldehyde for 10-15 min, followed by solubilisation and blocking with 3% BSA in 1×PBS, 0.05% Tween-20, 0.05% Triton. Imaging was performed on a Zeiss LSM510 Meta confocal microscope, using a 40× objective with fixed optical slice, laser power and detector/amplifier settings for all samples across each individual experiment to allow comparison. Quantitative analysis for HP1βT51P and γH2AX staining was performed using mean per-nucleus intensity to avoid any discrepancy in the definition or counting of foci. This was performed on identically stained and imaged samples by estimation of raw pixel intensity values for a defined number of cells, specified for each experiment, through the Zeiss LSM software, and comparison of the different groups by one-way ANOVA and Dunnet's post test. […] The plates were imaged and analyzed using a Cellomics high content screening microscope, using a 40× non-immersion objective. […] 500 cells were analysed per well, and standard errors calculated from an average of the means of 8 wells.

EGFP-HP1β = test: FRAP dynamics of EGFP-HP1β in living cells; assay type: cell-based, mouse; details: preexposure to 75 μM TBB (FIG. 20)
Description: MEFs were seeded in 2-well Lab-Tek chambers (Nunc) after transfection with the EGFP-HP1β construct. Before imaging, growth medium was replaced with phenol-red free L15 imaging medium. Live cell imaging and photobleaching experiments were performed using a 40× 1.2 NA water immersion lens on a Zeiss LSM 510 Meta confocal microscope (using a heating chamber to maintain the cells at […]) with the 488 nm line of an Argon laser operating at 6.1 A.
FRAP analysis was performed by a method previously established in our lab 27. For low-bleach FRAP (see FIG. S1), selected regions of HC and EC were simultaneously bleached in a diffraction-limited spot with a pulse of 2 iterations at 100% of the […] Ar laser. Post-bleach images were acquired at a lower frequency of an image every 400 msec. Image bleach was corrected separately for EC and HC regions using a nearby unbleached cell. For high-bleach FRAP experiments, photobleaching was with 35 iterations at the same laser output, and images were collected every 290 msec. The normalized curves were plotted in GraphPad Prism, and recovery curves were fitted to a single order exponential equation Y=Ymax*(1−exp(−K*X)) to yield a recovery constant K; shown to be different among groups by the sum of squares f-test at p<0.05.

HP1βT51P levels = test: anti-HP1βT51P detection in cell extracts; assay type: cell-based

SMILES | γH2AX foci formation (γH2AX; MEFs pre-exposed to 75 μM TBB, 5 min after 3 Gy IR) | pixel intensity of γH2AX staining after damage (γH2AX; TBB preexposure, n=20 per sample, p<0.01) | changes in FRAP dynamics of EGFP-HP1β triggered by DNA damage (EGFP-HP1β) | HP1βT51P levels detected by anti-HP1βT51P in cell extracts (HP1βT51P levels; TBB at 75 μM for 6 hrs, with and without etoposide) | HP1βT51P species detected by anti-HP1βT51P in cell extracts (HP1βT51P levels; etoposide treatment)
Brc1c(Br)c(Br)c2[nH]cnc2c1Br [TBB, 4,5,6,7-tetrabromo-benzimidazole] | suppresses γH2AX foci formation | reduced in a dose-dependent manner | suppresses in living cells the changes in FRAP dynamics | diminishes both the background detection and etoposide-induced enhancement of HP1βT51P levels | 
COc1cc([C@@H]2c3cc4c(cc3[C@@H](O[C@@H]3O[C@@H]5CO[C@@H](C)O[C@H]5[C@H](O)[C@H]3O)[C@H]3COC(=O)[C@H]23)OCO4)cc(OC)c1O [etoposide] |  |  |  |  | enhanced in a dose-dependent manner
